Assay results: paper PMC5218480 (PLoS ONE, 2017)

Tested on: MV-4-11 cells
Experiment: Gene expression microarray analysis (Affymetrix PrimeView) and GSEA
Type: cell-based, human
Parameters: RFU PODN (11730768_x_at) / Fold change /veh PODN (11730768_x_at) / RFU LINC00158 (11744669_a_at) / Fold change /veh LINC00158 (11744669_a_at) / RFU DUSP10 (11751237_a_at) / Fold change /veh DUSP10 (11751237_a_at) / RFU ID3 (11757404_x_at) / Fold change /veh ID3 (11757404_x_at) / RFU PLEKHG5 (11737974_s_at) / Fold change /veh PLEKHG5 (11737974_s_at) / RFU LRRC4B (11730491_at) / Fold change /veh LRRC4B (11730491_at) / RFU GIMAP4 (11747438_a_at) / Fold change /veh GIMAP4 (11747438_a_at) / RFU KRT8 (11758183_x_at) / Fold change /veh KRT8 (11758183_x_at) / RFU CNN1 (11734310_a_at) / Fold change /veh CNN1 (11734310_a_at) / RFU VPS37D (11726825_at) / Fold change /veh VPS37D (11726825_at) / RFU C10orf10 (11716522_x_at) / Fold change /veh C10orf10 (11716522_x_at) / RFU KIR2DL2 /// KIR2DL4 /// KIR2DL5A /// KIR2DL5B /// KIR2DS1 /// KIR2DS2 /// KIR2DS3 /// KIR2DS4 /// KIR3DL3 /// KIR3DL3 /// KIR3DS1 (11738374_at) / Fold change /veh KIR2DL2 /// KIR2DL4 /// KIR2DL5A /// KIR2DL5B /// KIR2DS1 /// KIR2DS2 /// KIR2DS3 /// KIR2DS4 /// KIR3DL3 /// KIR3DL3 /// KIR3DS1 (11738374_at) / RFU C1QL1 (11718748_at) / Fold change /veh C1QL1 (11718748_at) / RFU TMPRSS4 (11747572_a_at) / Fold change /veh TMPRSS4 (11747572_a_at) / RFU HAMP (11756126_x_at) / Fold change /veh HAMP (11756126_x_at) / RFU RNFT2 (11725882_a_at) / Fold change /veh RNFT2 (11725882_a_at) / RFU NR4A2 (11747474_a_at) / Fold change /veh NR4A2 (11747474_a_at) / RFU ABCC12 (11746883_a_at) / Fold change /veh ABCC12 (11746883_a_at) / RFU TMEM136 (11760407_x_at) / Fold change /veh TMEM136 (11760407_x_at) / RFU CLDN22 /// WWC2 (11732394_at) / Fold change /veh CLDN22 /// WWC2 (11732394_at) / RFU HLA-DPB1 (11760878_x_at) / Fold change /veh HLA-DPB1 (11760878_x_at) / RFU SPINT1 (11716480_a_at) / Fold change /veh SPINT1 (11716480_a_at) / RFU GAP43 (11754022_s_at) / Fold change /veh GAP43 (11754022_s_at) / RFU A4GNT (11735810_at) / Fold change /veh A4GNT (11735810_at) / RFU PRB3 (11715151_x_at) / Fold change /veh PRB3 (11715151_x_at) / RFU TUBB4B (11761932_at) / Fold change /veh TUBB4B (11761932_at) / RFU CAPN14 (11732068_a_at) / Fold change /veh CAPN14 (11732068_a_at) / RFU TMCC2 (11721928_a_at) / Fold change /veh TMCC2 (11721928_a_at) / RFU IRGQ (11745062_a_at) / Fold change /veh IRGQ (11745062_a_at) / RFU FAM174B (11720279_a_at) / Fold change /veh FAM174B (11720279_a_at) / RFU TMPRSS4 (11748680_a_at) / Fold change /veh TMPRSS4 (11748680_a_at) / RFU FAM212B (11763350_a_at) / Fold change /veh FAM212B (11763350_a_at) / RFU PLEKHG5 (11743358_a_at) / Fold change /veh PLEKHG5 (11743358_a_at) / RFU ZSCAN30 (11745921_a_at) / Fold change /veh ZSCAN30 (11745921_a_at) / RFU CMKLR1 (11741424_a_at) / Fold change /veh CMKLR1 (11741424_a_at) / RFU LOC101060620 /// MAPK8IP1 (11723275_at) / Fold change /veh LOC101060620 /// MAPK8IP1 (11723275_at) / RFU SPTSSB (11747773_x_at) / Fold change /veh SPTSSB (11747773_x_at) / RFU PRSS12 (11739890_at) / Fold change /veh PRSS12 (11739890_at) / RFU BIN1 (11741810_x_at) / Fold change /veh BIN1 (11741810_x_at) / RFU WNT11 (11732464_a_at) / Fold change /veh WNT11 (11732464_a_at) / RFU C10orf10 (11716521_a_at) / Fold change /veh C10orf10 (11716521_a_at) / RFU C5orf56 (11738089_at) / Fold change /veh C5orf56 (11738089_at) / RFU CYB561 (11721691_x_at) / Fold change /veh CYB561 (11721691_x_at) / RFU ANKRD19P (11752326_a_at) / Fold change /veh ANKRD19P (11752326_a_at) / RFU OR2T12 /// OR2T33 /// OR2T8 (11738714_s_at) / Fold change /veh OR2T12 /// OR2T33 /// OR2T8 (11738714_s_at) / RFU VCAN (11748164_a_at) / Fold change /veh VCAN (11748164_a_at) / RFU JSRP1 (11732532_at) / Fold change /veh JSRP1 (11732532_at) / RFU KRTAP10-11 (11738290_x_at) / Fold change /veh KRTAP10-11 (11738290_x_at) / RFU MYO3A (11730013_a_at) / Fold change /veh MYO3A (11730013_a_at) / RFU EBF3 (11725865_a_at) / Fold change /veh EBF3 (11725865_a_at) / RFU CAMK2N1 (11719241_x_at) / Fold change /veh CAMK2N1 (11719241_x_at) / RFU C5orf56 (11738088_a_at) / Fold change /veh C5orf56 (11738088_a_at) / RFU OLFML3 (11715873_a_at) / Fold change /veh OLFML3 (11715873_a_at) / RFU LOC100653217 /// NTM (11731650_a_at) / Fold change /veh LOC100653217 /// NTM (11731650_a_at) / RFU MAPK11 (11762145_a_at) / Fold change /veh MAPK11 (11762145_a_at) / RFU FIZ1 (11724087_x_at) / Fold change /veh FIZ1 (11724087_x_at) / RFU OASL (11726364_x_at) / Fold change /veh OASL (11726364_x_at) / RFU SOX15 (11748057_x_at) / Fold change /veh SOX15 (11748057_x_at) / RFU CD79A (11719716_a_at) / Fold change /veh CD79A (11719716_a_at) / RFU HIST1H1D (11736915_at) / Fold change /veh HIST1H1D (11736915_at) / RFU CASKIN2 (11723855_a_at) / Fold change /veh CASKIN2 (11723855_a_at) / RFU LOC730098 (11760151_x_at) / Fold change /veh LOC730098 (11760151_x_at) / RFU OR4N2 (11742367_at) / Fold change /veh OR4N2 (11742367_at) / RFU PRRT2 (11749266_a_at) / Fold change /veh PRRT2 (11749266_a_at) / RFU SNX32 (11753110_a_at) / Fold change /veh SNX32 (11753110_a_at) / RFU CDHR5 (11726645_a_at) / Fold change /veh CDHR5 (11726645_a_at) / RFU RCAN1 (11760418_a_at) / Fold change /veh RCAN1 (11760418_a_at) / RFU FAM167A (11723789_a_at) / Fold change /veh FAM167A (11723789_a_at) / RFU FAM26E (11764081_at) / Fold change /veh FAM26E (11764081_at) / RFU ISYNA1 (11749810_s_at) / Fold change /veh ISYNA1 (11749810_s_at) / RFU ACY1 (11761880_at) / Fold change /veh ACY1 (11761880_at) / RFU 11764098_at / Fold change /veh 11764098_at / RFU SAMD14 (11745864_x_at) / Fold change /veh SAMD14 (11745864_x_at) / RFU NPB (11741838_a_at) / Fold change /veh NPB (11741838_a_at) / RFU TMPRSS6 (11731388_a_at) / Fold change /veh TMPRSS6 (11731388_a_at) / RFU KRTAP10-2 (11738614_at) / Fold change /veh KRTAP10-2 (11738614_at) / RFU ARHGAP8 /// PRR5-ARHGAP8 (11727945_x_at) / Fold change /veh ARHGAP8 /// PRR5-ARHGAP8 (11727945_x_at) / RFU KRTAP5-7 /// NADSYN1 (11734609_at) / Fold change /veh KRTAP5-7 /// NADSYN1 (11734609_at) / RFU RASL12 (11751679_a_at) / Fold change /veh RASL12 (11751679_a_at) / RFU CDKN2B (11736163_a_at) / Fold change /veh CDKN2B (11736163_a_at) / RFU PRF1 (11729649_at) / Fold change /veh PRF1 (11729649_at) / RFU, ZNF638 /// ZNF638-IT1 / Fold change vs veh, ZNF638 /// ZNF638-IT1 / RFU, PANK3 / Fold change vs veh, PANK3 / RFU, SH3YL1 / Fold change vs veh, SH3YL1 / RFU, ZEB2 / Fold change vs veh, ZEB2 / RFU, NRIP1 / Fold change vs veh, NRIP1 / RFU, PTTG1IP / Fold change vs veh, PTTG1IP / RFU, CAPN2 / Fold change vs veh, CAPN2 / RFU, MED14 / Fold change vs veh, MED14 / RFU, SNORA58 / Fold change vs veh, SNORA58 / RFU, C1orf63 / Fold change vs veh, C1orf63 / RFU, LRRFIP1 / Fold change vs veh, LRRFIP1 / RFU, NDUFAF7 / Fold change vs veh, NDUFAF7 / RFU, SLC12A2 / Fold change vs veh, SLC12A2 / RFU, IBTK / Fold change vs veh, IBTK / RFU, ESF1 / Fold change vs veh, ESF1 / Fold change vs veh, TMEM50B / RFU, TAOK1 / Fold change vs veh, TAOK1 / RFU, ACBD3 / Fold change vs veh, ACBD3 / RFU, TMA16 / Fold change vs veh, TMA16 / RFU, RWDD3 / Fold change vs veh, RWDD3 / RFU, BCAT1 / Fold change vs veh, BCAT1 / RFU, EDEM3 / Fold change vs veh, EDEM3 / RFU, TMEM33 / Fold change vs veh, TMEM33 / RFU, WDR75 / Fold change vs veh, WDR75 / RFU, AHCTF1 / Fold change vs veh, AHCTF1 / RFU, TFRC / Fold change vs veh, TFRC / RFU, ZDHHC17 / Fold change vs veh, ZDHHC17 / RFU, NOM1 / Fold change vs veh, NOM1 / RFU, ARL8B / Fold change vs veh, ARL8B / RFU, ZBTB11 / Fold change vs veh, ZBTB11 / RFU, TAMM41 / Fold change vs veh, TAMM41 / RFU, KIAA1704 /// LOC100996395 / Fold change vs veh, KIAA1704 /// LOC100996395 / RFU, ING1 / Fold change vs veh, ING1 / RFU, TRMT61B / Fold change vs veh, TRMT61B / RFU, FUBP3 / Fold change vs veh, FUBP3 / RFU, TP53 / Fold change vs veh, TP53 / RFU, TNKS2 / Fold change vs veh, TNKS2 / RFU, ZFP14 / Fold change vs veh, ZFP14 / RFU, ACTR2 / Fold change vs veh, ACTR2 / RFU, PPP3R1 / Fold change vs veh, PPP3R1 / RFU, PIK3R1 / Fold change vs veh, PIK3R1 / RFU, HNRNPA1 / Fold change vs veh, HNRNPA1 / RFU, RNF170 / Fold change vs veh, RNF170 / RFU, ZNF28 / Fold change vs veh, ZNF28 / RFU, RNGTT / Fold change vs veh, RNGTT / RFU, OGT / Fold change vs veh, OGT / RFU, BRD1 / Fold change vs veh, BRD1 / RFU, MARS / Fold change vs veh, MARS / RFU, ZNF655 / Fold change vs veh, ZNF655 / RFU, FAHD1 / Fold change vs veh, FAHD1 / RFU, BDP1 / Fold change vs veh, BDP1 / RFU, LRRCC1 / Fold change vs veh, LRRCC1 / RFU, ARID1A / Fold change vs veh, ARID1A / RFU, ZNF146 / Fold change vs veh, ZNF146 / RFU, ZNF330 / Fold change vs veh, ZNF330 / RFU, GPN3 / Fold change vs veh, GPN3 / RFU, C9orf123 / Fold change vs veh, C9orf123 / RFU, N4BP2L2 / Fold change vs veh, N4BP2L2 / RFU, ARFIP1 / Fold change vs veh, ARFIP1 / RFU, FAM179B / Fold change vs veh, FAM179B / RFU, BCL10 / Fold change vs veh, BCL10 / RFU, UHRF1BP1L / Fold change vs veh, UHRF1BP1L / RFU, BET1 / Fold change vs veh, BET1 / RFU, CNOT2 / Fold change vs veh, CNOT2 / RFU, ZNF268 / Fold change vs veh, ZNF268 / Fold change vs veh, ZNF507 / RFU, DGCR2 / Fold change vs veh, DGCR2 / RFU, WDSUB1 / Fold change vs veh, WDSUB1 / Fold change vs veh, HSP90B1 /// MIR3652 / RFU, ADSS / Fold change vs veh, ADSS / RFU, GK / Fold change vs veh, GK / RFU, ZNF148 / Fold change vs veh, ZNF148 / RFU, TAF9 / Fold change vs veh, TAF9 / RFU, SLC1A5 / Fold change vs veh, SLC1A5 / RFU, SLMO2 / Fold change vs veh, SLMO2 / RFU, ABCC4 / Fold change vs veh, ABCC4 / RFU, LOC101060439 /// RAP1B / Fold change vs veh, LOC101060439 /// RAP1B / RFU, RFX7 / Fold change vs veh, RFX7 / RFU, GTPBP10 / Fold change vs veh, GTPBP10 / RFU, CNEP1R1 / Fold change vs veh, CNEP1R1 / RFU, BIVM-ERCC5 /// ERCC5 / Fold change vs veh, BIVM-ERCC5 /// ERCC5 / RFU, ILF3 / Fold change vs veh, ILF3 / RFU 11762660_at / Fold change /veh 11762660_at / RFU VCAN (11757783_s_at) / Fold change /veh VCAN (11757783_s_at) / RFU DDX43 (11728927_at) / Fold change /veh DDX43 (11728927_at) / RFU KRT8 (11758188_x_at) / Fold change /veh KRT8 (11758188_x_at) / RFU NKD1 (11759106_at) / Fold change /veh NKD1 (11759106_at) / RFU SRD5A1 (11742802_a_at) / Fold change /veh SRD5A1 (11742802_a_at) / RFU TPSAB1 /// TPSB2 (11721975_s_at) / Fold change /veh TPSAB1 /// TPSB2 (11721975_s_at) / RFU GSTM3 (11746129_a_at) / Fold change /veh GSTM3 (11746129_a_at) / RFU IL23R (11737362_x_at) / Fold change /veh IL23R (11737362_x_at) / RFU TMEM51 (11727254_a_at) / Fold change /veh TMEM51 (11727254_a_at) / RFU PIWIL2 (11732686_x_at) / Fold change /veh PIWIL2 (11732686_x_at) / RFU ORM1 (11744905_x_at) / Fold change /veh ORM1 (11744905_x_at) / RFU CCDC152 (11743942_at) / Fold change /veh CCDC152 (11743942_at) / RFU ECM1 (11717891_a_at) / Fold change /veh ECM1 (11717891_a_at) / RFU IL23R (11748794_a_at) / Fold change /veh IL23R (11748794_a_at) / RFU TNFAIP8L3 (11732012_x_at) / Fold change /veh TNFAIP8L3 (11732012_x_at) / RFU MBOAT4 (11741988_at) / Fold change /veh MBOAT4 (11741988_at) / RFU 11764193_at / Fold change /veh 11764193_at / RFU TMEM53 (11763286_at) / Fold change /veh TMEM53 (11763286_at) / RFU MAGEB2 (11727129_at) / Fold change /veh MAGEB2 (11727129_at) / RFU TMEM200A (11744735_a_at) / Fold change /veh TMEM200A (11744735_a_at) / RFU CCDC152 (11751479_a_at) / Fold change /veh CCDC152 (11751479_a_at) / RFU FAM211A (11726209_a_at) / Fold change /veh FAM211A (11726209_a_at) / RFU RGS16 (11746705_a_at) / Fold change /veh RGS16 (11746705_a_at) / RFU VCAN (11755009_s_at) / Fold change /veh VCAN (11755009_s_at) / RFU RHOB (11743442_s_at) / Fold change /veh RHOB (11743442_s_at) / RFU RGS16 (11720943_a_at) / Fold change /veh RGS16 (11720943_a_at) / RFU RGS16 (11720944_at) / Fold change /veh RGS16 (11720944_at) / RFU, VPS4B / Fold change vs veh, VPS4B / RFU, CREB1 / Fold change vs veh, CREB1 / RFU, DNAJC13 / Fold change vs veh, DNAJC13 / RFU, GNAQ / Fold change vs veh, GNAQ / RFU, CDK5R1 / Fold change vs veh, CDK5R1 / RFU, ZRANB3 / Fold change vs veh, ZRANB3 / RFU, CUL4A / Fold change vs veh, CUL4A / RFU, CCNY / Fold change vs veh, CCNY / RFU, UFL1 / Fold change vs veh, UFL1 / RFU, COG3 / Fold change vs veh, COG3 / RFU, DIAPH2 / Fold change vs veh, DIAPH2 / RFU, SKA2 / Fold change vs veh, SKA2 / RFU, AFF3 / Fold change vs veh, AFF3 / RFU, LMF1 / Fold change vs veh, LMF1 / RFU, IPO11 / Fold change vs veh, IPO11 / RFU, DFFB / Fold change vs veh, DFFB / RFU, FOXP1 / Fold change vs veh, FOXP1 / RFU, CARD8 / Fold change vs veh, CARD8 / RFU, STRN3 / Fold change vs veh, STRN3 / RFU, ADK / Fold change vs veh, ADK / RFU, RASSF2 / Fold change vs veh, RASSF2 / RFU, WIPF1 / Fold change vs veh, WIPF1 / RFU, LARP1B / Fold change vs veh, LARP1B / RFU, RASA1 / Fold change vs veh, RASA1 / RFU, RB1 / Fold change vs veh, RB1 / RFU, PPFIA1 / Fold change vs veh, PPFIA1 / RFU, MAT2A / Fold change vs veh, MAT2A / RFU, CCT5 / Fold change vs veh, CCT5 / RFU, WDR92 / Fold change vs veh, WDR92 / RFU, CUX1 / Fold change vs veh, CUX1 / RFU, TTC7A / Fold change vs veh, TTC7A / RFU, TMEM135 / Fold change vs veh, TMEM135 / RFU, DEPTOR / Fold change vs veh, DEPTOR / RFU, CPM / Fold change vs veh, CPM / RFU, DNAJB6 / Fold change vs veh, DNAJB6 / RFU, CACNA2D3 / Fold change vs veh, CACNA2D3 / RFU, DTX4 / Fold change vs veh, DTX4 / RFU, TFCP2 / Fold change vs veh, TFCP2 / RFU, GMCL1 /// GMCL1P1 / Fold change vs veh, GMCL1 /// GMCL1P1 / RFU, AEBP2 / Fold change vs veh, AEBP2 / RFU, SNHG1 /// SNORD22 /// SNORD25 /// SNORD26 /// SNORD27 /// SNORD28 /// SNORD29 /// SNORD31 / Fold change vs veh, SNHG1 /// SNORD22 /// SNORD25 /// SNORD26 /// SNORD27 /// SNORD28 /// SNORD29 /// SNORD31 / Fold change (Aza/veh), C12orf56 (ProbeSet 11735607_a_at) / Fold change (ACY-1035/veh), C12orf56 (ProbeSet 11735607_a_at) / Fold change (Aza/veh), FGFR1OP (ProbeSet 11751329_s_at) / Fold change (ACY-1035/veh), FGFR1OP (ProbeSet 11751329_s_at) / Fold change (Aza/veh), VPS36 (ProbeSet 11739960_a_at) / Fold change (ACY-1035/veh), VPS36 (ProbeSet 11739960_a_at) / RFU SYPL1 (11715823_x_at) / Fold change /veh SYPL1 (11715823_x_at) / RFU IGFBP7 (11715501_s_at) / Fold change /veh IGFBP7 (11715501_s_at) / RFU REEP3 (11722064_at) / Fold change /veh REEP3 (11722064_at) / RFU IGLL1 (11728026_x_at) / Fold change /veh IGLL1 (11728026_x_at): dose or concentration left out as unconfirmed
Conditions: ProbeSet 11723141_at; LIST B

## Nc1ccc(-c2cccs2)cc1NC(=O)c1ccc2c(c1)cc(C1CC1)n2CCN1CCOCC1 [ACY-1035]
  RFU, ZBTB11: 113.11 RFU
